Paper PMC8954350, “Non-Canonical Cannabinoid Receptors with Distinct Binding and Signaling Properties in Prostate and Other Cancer Cell Types Mediate Cell Death” (International Journal of Molecular Sciences, 2022)

Legend:
[1] = target: T1, human CB2 receptors (Homo sapiens, UniProt P34972); assay: Competition binding, CHO-hCB2 membranes; details: membranes from CHO cells stably expressing human CB2
T1 construct: expressed in transfected cells
Method: The assay was performed as previously detailed. […] All binding reactions were conducted in triplicate, in a final volume of 1 mL, and, following mixing, were incubated for 20 min in a 37 °C water bath to achieve equilibrium. After incubation, reactions were terminated by rapid vacuum filtration and processed for radioactivity, as detailed in Section 4.5.1.
Curve-fitting and all statistical analyses were performed using GraphPad Prism® v8.0g (GraphPad Software, Inc.; San Diego, CA, USA). […] For CBR screening studies, a one-sample t-test was performed to determine differences from 100% (e.g., to quantify compounds producing displacement), followed by a one-way ANOVA and Tukey’s post hoc tests to compare displacement produced by all drugs. […] To compare specific CBR affinity (Ki) between ligands, non-linear regression analysis was employed to determine experimental IC50 values from competition receptor binding assays, which were then converted to Ki values using the Cheng–Prusoff equation [35]. […] For LDH release, ATP-dependent cell viability and JC-1 staining assays, drug effects were first analyzed by a one-sample t-test to determine differences from 0 or 100% (vehicle), followed by a one-way ANOVA and Dunnett’s post hoc test to compare all means. […]

[2] = test system: DU-145 cells; assay: ATP-dependent cell viability, DU-145 cells; type: cell-based, human; details: 24 h
Method: Adenosine 5′-triphosphate (ATP) levels were quantified as a measure of DU-145 cell viability in response to cannabinoid treatement using an ATP-luciferase-based bioluminescence assay kit (CellTiter-Glo®, Sigma, MO, USA) and BioTek microplate reader (Winooski, VT, USA). DU-145 cells were seeded at a density of 8 × 10^3 cells/well in a 96-well plate and incubated for 24 h at 37 °C with 5% CO2. The next day, cells were treated with either vehicle or experimental drugs (10 or 50 μM) and incubated for another 24 h at 37 °C with 5% CO2. ATP levels were assessed following incubation by interpolation from an ATP standard curve according to the manufacturer’s protocol, as described previously.

[3] = test system: CBRs expressed in HeLa cells; assay: [^3H]CP-55,940 competitive binding screen, HeLa membranes; set-up: species or system human; details: 1 μM ligand, 0.2 nM radioligand
Method: (§1) The assay was conducted as previously detailed. […] All binding reactions were conducted in triplicate, in a final volume of 1 mL, and, following mixing, were incubated for 20 min in a 37 °C water bath to achieve equilibrium. After incubation, reactions were terminated by rapid vacuum filtration through Whatman GF/B glass fiber filters (Brandel; Gaithersburg, MD, USA), followed by three washes of 4 mls of ice-cold filtration buffer (50 mM Tris, pH 7.4, and 0.05% bovine serum albumin). Samples were punched out from filter papers into scintillation vials, to which 4 mls of ScintiverseTM-BDR cocktail scintillation fluid (Fisher Scientific; Hampton, NH, USA) was added. Filters were incubated at room temperature for 24 h in scintillation fluid, vortexed, and radioactivity (measured as DPMs) was quantified via a liquid scintillation spectrophotometer (Tri Carb 2100 TR Liquid Scintillation Analyzer, Packard Instruments, Meriden, CT, USA).

[4] = target: non-canonical CBRs expressed in DU-145; assay: Homologous receptor binding, DU-145; set-up: species or system human; details: homologous competition with [^3H]WIN-55,212-2 (1 nM), read-out: affinity (KD)
Method: All binding reactions were conducted in triplicate, in a final volume of 1 mL, and, following mixing, were incubated for 20 min in a 37 °C water bath to achieve equilibrium. After incubation, reactions were terminated by rapid vacuum filtration and processed for radioactivity, as detailed in Section 4.5.1.
Curve-fitting and all statistical analyses were performed using GraphPad Prism® v8.0g (GraphPad Software, Inc.; San Diego, CA, USA). For qRT-PCR experiments, a one-way ANOVA, followed by Dunnett’s test as a post hoc test was utilized to compare fold change of PC-3 and DU-145 cancer cells to an arbitrary value of 1, set to the amount of mRNA transcribed from a human normal prostate control. For CBR screening studies, a one-sample t-test was performed to determine differences from 100% (e.g., to quantify compounds producing displacement), followed by a one-way ANOVA and Tukey’s post hoc tests to compare displacement produced by all drugs. […] For LDH release, ATP-dependent cell viability and JC-1 staining assays, drug effects were first analyzed by a one-sample t-test to determine differences from 0 or 100% (vehicle), followed by a one-way ANOVA and Dunnett’s post hoc test to compare all means. […]

[5] = test system: CBRs expressed in DU-145 cells; assay: [^3H]CP-55,940 competitive binding screen, DU-145 membranes; set-up: species or system human; details: 1 μM ligand, 0.2 nM radioligand
Method: as §1

[6] = test system: CBRs expressed in C6-glioma cells; assay: [^3H]WIN-55,212-2 competitive binding screen, C6-glioma membranes; set-up: species or system mouse; details: 1 μM ligand, 1 nM radioligand
Method: as §1

[7] = test system: CBRs expressed in PC-3 cells; assay: [^3H]CP-55,940 competitive binding screen, PC-3 membranes; set-up: species or system human; details: 1 μM ligand, 0.2 nM radioligand
Method: as §1

T1 sequence (P34972 whole entry): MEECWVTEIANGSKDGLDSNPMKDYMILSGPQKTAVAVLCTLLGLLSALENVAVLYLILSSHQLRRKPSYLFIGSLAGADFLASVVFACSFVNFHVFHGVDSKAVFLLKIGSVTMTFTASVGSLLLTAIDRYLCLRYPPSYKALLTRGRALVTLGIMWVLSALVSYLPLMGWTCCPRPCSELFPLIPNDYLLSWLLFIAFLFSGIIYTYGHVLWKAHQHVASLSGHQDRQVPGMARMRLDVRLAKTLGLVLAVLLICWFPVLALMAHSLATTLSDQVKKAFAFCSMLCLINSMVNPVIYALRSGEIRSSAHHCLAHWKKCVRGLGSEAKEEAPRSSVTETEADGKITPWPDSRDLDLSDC

Row | SMILES | Ki [1] [nM] | reduction in ATP-dependent cell viability (ATP levels) ([2]; 50 μM) [%] | concentration-dependent effect on ATP-dependent viability ([2]; 10–50 μM) | displacement of [^3H]CP-55,940 [3] | Kd [4] [nM] | displacement of [^3H]CP-55,940 [5] | displacement of [^3H]WIN-55,212-2 (Figure 1B) [6] | displacement of [^3H]CP-55,940 [7]
1 | COc1ccc2c(c1)c(CCN1CCOCC1)c(C)n2C(=O)c1cccc(Cl)c1Cl [GW-405833] | 51 | 68.8 ± 4.95 | only produced ATP-dependent reductions in cell viability at the highest 50 μM concentration |  |  |  |  | 
2 | Cc1c(C(=O)c2cccc3ccccc23)c2cccc3c2n1[C@H](CN1CCOCC1)CO3 [WIN-55,212-2] |  |  |  | neither the non-selective CBR ligand CP-55,940 nor WIN-55,212-2 produced significant displacement | 4.3 ± 0.89 | neither the non-selective CBR ligand CP-55,940 nor WIN-55,212-2 produced significant displacement | significantly displaced | neither the non-selective CBR ligand CP-55,940 nor WIN-55,212-2 produced significant displacement
